According to patent US8124637B2, “Anthra [1, 2-d]imidazole-6,11-dione derivatives, preparation method and application thereof” (National Defense Medical Center, priority 2010, dated 2012):

Legend:
CAKI-1 = assay: NCI 60-cell drug screen, one dose; type: cell-based, human; details: Renal Cancer CAKI-1, 1.00E−5 Molar
[1] = MTT assay (relative cell survival), H1299; details: human, H1299 non-small cell lung cancer cells (PhTERT-SEAP), Relative MTT viability (%)
Description: Further, cells were subjected to MTT assay to compare the relative toxicity or effect of each compound on cell proliferation and activity.
The above-described cells are cultured in a 96-well plate, to which was added with 25 μl MTT solution, and cultured in a 37° C. carbon dioxide incubator for 4 hours. Then, 100 μl Lysis buffer is added and incubated in a 37° C. carbon dioxide incubator overnight. An ELISA reader (Bio-Rad Model 450) is used to read optical density (O.D.) at 550 nm.
After being subjected to different compound treatments for 72 hours, cells were treated with a fixed amount of MTT solution for 28 hours. Then, DMSO was used to dissolve back formazan, an O. D. value was detected at wavelength in the range of 550/670 nm, and calculated accordingly the cell survival rate (as shown in Table 1).

UACC-257 = assay: NCI 60-cell drug screen, one dose; type: cell-based, human; details: Melanoma UACC-257, 1.00E−5 Molar
RXF 393 = assay: NCI 60-cell drug screen, one dose; type: cell-based, human; details: Renal Cancer RXF 393, 1.00E−5 Molar
K562 = assay: NCI 60-cell drug screen, one dose; type: cell-based, human; details: Leukemia K562, 1.00E−5 Molar
HL-60(TB) = assay: NCI 60-cell drug screen, one dose; type: cell-based, human; details: Leukemia HL-60(TB), 1.00E−5 Molar
U251 = assay: NCI 60-cell drug screen, one dose; type: cell-based, human; details: CNS Cancer U251, 1.00E−5 Molar
Outline: (§1)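 Human cancer cells received test compound at one fixed level for 48 h, then SRB dye binding to cellular protein was read colorimetrically.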

MOLT-4 = assay: NCI 60-cell drug screen, one dose; type: cell-based, human; details: Leukemia MOLT-4, 1.00E−5 Molar
Outline: as §1

IGROV1 = assay: NCI 60-cell drug screen, one dose; type: cell-based, human; details: Ovarian Cancer IGROV1, 1.00E−5 Molar
Outline: as §1

HCC-2998 = assay: NCI 60-cell drug screen, one dose; type: cell-based, human; details: Colon Cancer HCC-2998, 1.00E−5 Molar
Outline: as §1

SNB-75 = assay: NCI 60-cell drug screen, one dose; type: cell-based, human; details: CNS Cancer SNB-75, 1.00E−5 Molar
Outline: as §1

UACC-62 = assay: NCI 60-cell drug screen, one dose; type: cell-based, human; details: Melanoma UACC-62, 1.00E−5 Molar
Outline: as §1

HCT-15 = assay: NCI 60-cell drug screen, one dose; type: cell-based, human; details: Colon Cancer HCT-15, 1.00E−5 Molar
Outline: as §1

HCT-116 = assay: NCI 60-cell drug screen, one dose; type: cell-based, human; details: Colon Cancer HCT-116, 1.00E−5 Molar
Outline: as §1

NCI/ADR-RES = assay: NCI 60-cell drug screen, one dose; type: cell-based, human; details: Ovarian Cancer NCI/ADR-RES, 1.00E−5 Molar
Outline: as §1

OVCAR-8 = assay: NCI 60-cell drug screen, one dose; type: cell-based, human; details: Ovarian Cancer OVCAR-8, 1.00E−5 Molar
Outline: as §1

[2] = NCI 60-cell drug screen, one dose; type: cell-based, human; details: Renal Cancer A489, 1.00E−5 Molar
Outline: as §1

OVCAR-3 = assay: NCI 60-cell drug screen, one dose; type: cell-based, human; details: Ovarian Cancer OVCAR-3, 1.00E−5 Molar
Outline: as §1

SF-268 = assay: NCI 60-cell drug screen, one dose; type: cell-based, human; details: CNS Cancer SF-268, 1.00E−5 Molar
Outline: as §1

MDA-MB-231/ATCC = assay: NCI 60-cell drug screen, one dose; type: cell-based, human; details: Breast Cancer MDA-MB-231/ATCC, 1.00E−5 Molar
Outline: as §1

UO-31 = assay: NCI 60-cell drug screen, one dose; type: cell-based, human; details: Renal Cancer UO-31, 1.00E−5 Molar
Outline: as §1

SK-OV-3 = assay: NCI 60-cell drug screen, one dose; type: cell-based, human; details: Ovarian Cancer SK-OV-3, 1.00E−5 Molar
Outline: as §1

NCI-H226 = assay: NCI 60-cell drug screen, one dose; type: cell-based, human; details: Non-Small Cell Lung Cancer NCI-H226, 1.00E−5 Molar
Outline: as §1

MALME-3M = assay: NCI 60-cell drug screen, one dose; type: cell-based, human; details: Melanoma MALME-3M, 1.00E−5 Molar
Outline: as §1

SF-295 = assay: NCI 60-cell drug screen, one dose; type: cell-based, human; details: CNS Cancer SF-295, 1.00E−5 Molar
Outline: as §1

MDA-MB-468 = assay: NCI 60-cell drug screen, one dose; type: cell-based, human; details: Breast Cancer MDA-MB-468, 1.00E−5 Molar
Outline: as §1

A549/ATCC = assay: NCI 60-cell drug screen, one dose; type: cell-based, human; details: Non-Small Cell Lung Cancer A549/ATCC, 1.00E−5 Molar
Outline: as §1

PC-3 = assay: NCI 60-cell drug screen, one dose; type: cell-based, human; details: Prostate Cancer PC-3, 1.00E−5 Molar
Outline: as §1

SK-MEL-2 = assay: NCI 60-cell drug screen, one dose; type: cell-based, human; details: Melanoma SK-MEL-2, 1.00E−5 Molar
Outline: as §1

DU145 = assay: NCI 60-cell drug screen, one dose; type: cell-based, human; details: Prostate Cancer DU145, 1.00E−5 Molar
Outline: as §1

OVCAR-4 = assay: NCI 60-cell drug screen, one dose; type: cell-based, human; details: Ovarian Cancer OVCAR-4, 1.00E−5 Molar
Outline: as §1

TK-10 = assay: NCI 60-cell drug screen, one dose; type: cell-based, human; details: Renal Cancer TK-10, 1.00E−5 Molar
Outline: as §1

With `O=C1c2ccccc2C(=O)c2c1ccc1nc(CN3CCN(c4ccccn4)CC3)[nH]c21` [CL28, 2-((4-(pyridin-2-yl)piperazin-1-yl)methyl)-1H-anthra[1,2-d]imidazole-6,11-dione] the “Growth Percent” value (CAKI-1) was 68.83%, the viability at 72 h, 1 µM ([1]; 1 μM) was 90.5 ± 4.34% and the viability at 72 h, 10 µM ([1]; 10 μM) was 69.5%. For the same compound, the viability at 72 h, 100 µM ([1]; 100 μM) was 19.8%, the “Growth Percent” value (UACC-257) was 88.91% and the “Growth Percent” value (RXF 393) was 89.67%. For the same compound, the “Growth Percent” value (K562) was 83.48%, the “Growth Percent” value (HL-60(TB)) was 97.31% and the “Growth Percent” value (U251) was 86.28%. The “Growth Percent” value (MOLT-4) was 61.76%, the “Growth Percent” value (IGROV1) was 91.25% and the “Growth Percent” value (HCC-2998) was 92.28%. The “Growth Percent” value (SNB-75) was 82.14%, the “Growth Percent” value (UACC-62) was 85.13% and the “Growth Percent” value (HCT-15) was 86.02%. For the same compound, the “Growth Percent” value (HCT-116) was 84.30%, the “Growth Percent” value (NCI/ADR-RES) was 81.16% and the “Growth Percent” value (OVCAR-8) was 88.07%. For the same compound, the “Growth Percent” value [2] was 68.23%, the “Growth Percent” value (OVCAR-3) was 88.67% and the “Growth Percent” value (SF-268) was 79.15%. The “Growth Percent” value (MDA-MB-231/ATCC) was 72.65%, the “Growth Percent” value (UO-31) was 60.42% and the “Growth Percent” value (SK-OV-3) was 93.16%. The “Growth Percent” value (NCI-H226) was 91.88%, the “Growth Percent” value (MALME-3M) was 124.77% and the “Growth Percent” value (SF-295) was 92.70%. The “Growth Percent” value (MDA-MB-468) was 53.92%, the “Growth Percent” value (A549/ATCC) was 91.07% and the “Growth Percent” value (PC-3) was 89.10%. For the same compound, the “Growth Percent” value (SK-MEL-2) was 98.34%, the “Growth Percent” value (DU145) was 81.46% and the “Growth Percent” value (OVCAR-4) was 64.57%. The “Growth Percent” value (TK-10) was 120.65%.
